Source: patent US20240287123A1 (Victoria Link Limited, priority 2021, published 2024)
Entries after “also recorded” stand apart in the source; their conditions may differ. Where two headings read alike, the source gives them in different places.

What was measured:
[1] = tested on: HIVADA; experiment: HIV p24 alphaLISA in infected monocyte derived macrophages; assay type: cell-based, Human Immunodeficiency Virus
Protocol: Primary human MDMs were cultured from peripheral blood mononuclear cells and pre-treated for 24 h with ddhC (100 μM), compound 8 (100 μM), compound 21 (100 μM), emtricitabine control (15 μM, 10 μM, 1 μM, 0.1 μM), or the drug vehicle, DMSO. MDM were then infected with HIVADA in the presence of these compounds and treated daily (with compound), while culture supernatants were collected to quantify levels of HIV p24, a viral capsid protein, on days 2-7 of infection.
Leukopaks from healthy donors were obtained from the New York Blood Center and processed by Ficoll gradient centrifugation to isolate peripheral blood mononuclear cells (PBMC). These PBMC were cultured adherently into monocyte derived macrophages (MDM), according to published protocols, on 60 mm dishes for 6 days with 10-20 ng/ml macrophage colony stimulating factor (M-CSF). MDM were pre-treated with ddhC, compound 8, compound 21, emtricitabine (Cat. No .: 10071), or DMSO vehicle at indicated concentrations for 24 hours (NIH AIDS Reagent Program, Bethesda, MD). Cells were left uninfected or infected for 24 h in the presence of one of the compounds listed above with 20 ng/mL HIVADA, a macrophage-tropic HIV strain originally derived from a person with HIV (NIH). Media was changed daily with the mentioned compounds added each time, and supernatants were collected on days 2, 3, 4, 5, 6, and 7 of infection. Each treatment condition was analyzed in duplicate plates per experiment.
Supernatant samples were analyzed for the viral capsid protein, HIV p24, by a sensitive p24 alphaLISA according to the manufacturer's protocol (Perkin-Elmer, Waltham, MA). Treatment conditions were analyzed in duplicate plates, and each supernatant was analyzed in duplicate on a 96-well alphaLISA plate. These were then fit to a sigmoid standard curve to extrapolate HIV p24 levels in pg/mL within the assay limits of detection.

[2] = Cytotoxicity in HFF cells (CellTiter-Glo), concurrent with HCMV assay; assay type: cell-based; settings: human
Protocol: (§1) Human foreskin fibroblast (HFF) cells prepared from human foreskin tissue were obtained from the University of Alabama at Birmingham tissue procurement facility with approval from its IRB. The tissue was incubated at 4° C. for 4 h in Clinical Medium consisting of minimum essential media (MEM) with Earl's salts supplemented with 10% fetal bovine serum (FBS) (Hyclone, Inc. Logan UT), L-glutamine, fungizone, and vancomycin. Tissue was then placed in phosphate buffered saline (PBS), minced, rinsed to remove the red blood cells, and resuspended in trypsin/EDTA solution. The tissue suspension was incubated at 37° C. and gently agitated to disperse the cells, which were collected by centrifugation. Cells were resuspended in 4 ml Clinical Medium and placed in a 25 cm^2 flask and incubated at 37° C. in a humidified CO2 incubator for 24 h. The media was then replaced with fresh Clinical Medium and the cell growth was monitored daily until a confluent monolayer had formed. The HFF cells were then expanded through serial passages in standard growth medium of MEM with Earl's salts supplemented with 10% FBS, L-glutamine, penicillin, and gentamycin. The cells were passaged routinely and used for assays at or below passage ^10.37,38
(§2) Each experiment that evaluates the antiviral activity of compounds includes both positive and negative control compounds to ensure the performance of each assay. Concurrent assessment of cytotoxicity was also performed for each study in the same cell line and with the same compound exposure.
Assays were performed in monolayers as described.37 Cells were seeded in 384 well plates and incubated for 24 h to allow the formation of confluent monolayers. Dilutions of test drug were prepared directly in the plates and the monolayers infected at a predetermined MOI based on virus used. After incubation, cytopathology was determined by the addition of CellTiter-Glo (CTG) reagent. Concentrations of test compound sufficient to reduce CPE by 50% (EC50) or decrease cell viability by 50% (CC50) were interpolated using standard methods in Microsoft Excel. Toxicity was measured using CTG as above.

[3] = tested on: primary human MDM; experiment: Toxicity to MDM: LDH assay and light microscopy; assay type: cell-based
Protocol: Light microscopy was used to image MDMs on day 7 of infection. […] Colorimetric LDH assays were also performed on culture supernatants from these same cells on day 4 of infection to assess cell death.
At the end of each experiment, cells were imaged by light microscopy. After aspirating off media, cells were washed with PBS, and lysates were harvested in extraction buffer containing 0.1% Formic acid, 50% ACN, 40% MeOH, 10% H2O.
Drug toxicity was analyzed using an LDH assay kit according to manufacturer's instructions (Abcam #ab65393, Toronto, Canada). Briefly, supernatants from duplicate plates per treatment condition were added to a 96-well plate. Each supernatant was run in triplicate. Provided assay buffer was added to culture supernatants after mixing with a substrate solution that turns orange upon lactate exposure. After incubation for 30-45 min, colorimetric signal was quantified an OD of 450 nm. LDH was a positive control as well as cells lysed with 10% lysis buffer in media representing the “high control” to which % cytotoxicity was measured. The reference sample was either control uninfected cells treated with DMSO or negative control HIV-infected cells treated with DMSO. Culture media alone was used as a technical negative control. This background signal that was subtracted from all test wells.

[4] = tested on: HCMV (AD169 strain in HFF cells); experiment: CPE (cytopathic effect) assay for HCMV; assay type: cell-based, Human Cytomegalovirus
Protocol: as §1, with “gentamycin.” for “gentamycin. The cells were passaged routinely and used for assays at or below passage ^10.37,38”
Akata cells were obtained from Louisiana State University, Baton Rouge, LA. The HCMV strain AD169 was obtained from the American Type Culture Collection (ATCC, Manassas, VA). Akata cells latently infected with EBV were obtained from Louisiana State University, Baton Rouge, LA.
as §2
Assays were performed in monolayers as described.37 Cells were seeded in 384 well plates and incubated for 24 h to allow the formation of confluent monolayers. Dilutions of test drug were prepared directly in the plates and the monolayers infected at a predetermined MOI based on virus used. After incubation, cytopathology was determined by the addition of CellTiter-Glo (CTG) reagent. […] Toxicity was measured using CTG as above.

Compound: CC(C)C(=O)OCC1=C[C@@H](O)[C@H](n2ccc(N)nc2=O)O1 [Compound 8, 3′-Deoxy-3′,4′-didehydro-5′-O-isobutyroyl-cytidine]
- reduction of p24 levels ([1]; 10 μM, by day 6 of infection): ~50%
- levels of HIV p24 viral capsid protein ([1]; 100 μM, infected MDM, days 2-7, compared with DMSO control): significantly reduce; also recorded: significantly decreased
- impact on HIV replication relative to the DMSO control ([1]; low doses: compound 8 compound 21 (0.1-1 μM) as printed): minimal impact
- CC50 [2]: > 50 µM
- LDH activity in HIV-infected MDMs relative to DMSO controls ([3]; 100 μM, day 4 of infection): nearly identical
- LDH activity relative to uninfected DMSO controls ([3]; 100 μM, uninfected or HIV-infected MDMs, day 4 of infection): no significant difference
- toxicity to MDMs ([3]; 100 uM, visual inspection by light microscopy and colorimetric LDH assays): non-toxic
- EC50 ([4]; Human betaherpesvirus 5, AD169, HFF, approximate, read-out: EC50 against HCMV): ~20 nM
- EC50 ([4]; Human betaherpesvirus 5, AD169 strain in HFF cells, Table 1, read-out: HCMV EC50): 20 nM
